Data from US10281476B2, “Methods to identify modulators of RyR calcium channels” (REGENTS OF THE UNIVERSITY OF MINNESOTA, priority 2013, dated 2019).

Tested on: RyR
Assay: Pilot FLT-FRET screen of NIH Clinical Collection 1 with D-FKBP and A-CaM near their Kd
Format: binding
Details: preliminary screen
Source text: The optimal concentration of A-CaM may vary from sarcoplasmic reticulum to cell samples, but using a concentration of A-CaM that is at or near its Kd will allow detection of enhanced CaM binding by FRET assays. Compounds that modulate CaM binding are expected to also affect RyR channel function, which can optionally be determined in secondary functional assays. […] A pilot screen of NIH Clinical Collection 1 used donor labeled FKBP and acceptor labeled CaM near their Kd.
Using the method illustrated in FIGS. 3 and 4, a preliminary screen of NIH Clinical Collection 1 (NCC1, 446 compounds) was conducted. The concentrations of A-CaM and D-FKBP were near their Kd. […] In FIG. 36, we represented the effect of compounds on FRET as E(compound)/E(control) (E/E0). Values outside the 3SD threshold (dotted line) are considered hits. Increased FRET (E/E0>1) indicates increased FKBP and/or CaM binding; decreased FRET (E/E0<1) indicates decreased FKBP and/or CaM binding.

Compound	effect on FRET, E(compound)/E(control); hit = outside the 3SD threshold	effect on FRET, E(compound)/E(control); hit = outside the 3SD threshold (listed as FK506)
Nc1nc(Cl)nc2c1ncn2[C@H]1C[C@H](O)[C@@H](CO)O1 [Cladribine]	hits	
O=C1N(c2ccccc2)c2ccccc2C1(Cc1ccncc1)Cc1ccncc1 [Linopirdine]	hits	
NC(=O)c1cccnc1 [Nicotinamide]	hits	
C=CC[C@@H]1/C=C(\C)C[C@H](C)C[C@H](OC)[C@H]2O[C@@](O)(C(=O)C(=O)N3CCCC[C@H]3C(=O)O[C@H](/C(C)=C/[C@@H]3CC[C@@H](O)[C@H](OC)C3)[C@H](C)[C@@H](O)CC1=O)[C@H](C)C[C@@H]2OC [Tacrolimus]	among the hits	reducing FRET
